Measurements taken from patent US10449137B2, “Antimicrobial composition” (Conopco, Inc., priority 2015, dated 2019).

System: E. coli ATCC 10536
Experiment: In-vitro micro-dilution assay for determination of antimicrobial activity
Format: cell-based
Details: for Average Residual Log (CFU/mL): E. coli ATCC 10536, 10^6 cells/mL in 10 mM sodium phosphate buffer, contact time 4 hours, about 37° C., plated on MacConkey agar; for antimicrobial action (in words): low concentration, E. coli ATCC 10536, 4 hours contact
Protocol: In-vitro Micro-dilution Assay for Determination of Antimicrobial Activity of Different Compositions:
The organism used for the assay was E. coli ATCC 10536
The procedure that was followed is given below: • a) First, the bacterial suspension corresponding to 10^6 cells/mL was prepared in 10 mM Sodium phosphate buffer. For this purpose the sodium phosphate buffer was prepared as follows: • To prepare the sodium phosphate buffer two different solutions were made. The first solution was prepared by dissolving 27.6 g of NaH2PO4.H20 (MW=138) in 500 mL of MilliQ water and made up the volume to 1 L with MilliQ water. This was then autoclaved and stored at room temperature. The molarity of the resultant solution was 0.2. • Then, the second solution was prepared by dissolving 53.62 g of […] (MW=268.1) in 500 mL of MilliQ water and made up the volume to 1 L with MilliQ water. This was then autoclaved and stored at room temperature. The molarity of the resultant solution was 0.2. • 19 mL of the first solution and 81 mL of the second solution was added together followed by the addition of 100 mL of MilliQ water to obtain a 200 mL solution of sodium phosphate buffer of molarity 0.1 with pH 7.4. • The required level of molarity that was need for the experiments were obtained by diluting the above solution. • b) Then 135 μL/well of the above bacterial suspension was taken and plated in a 96 well microtiter plate. • c) After that 15 μL of 100 mM sodium phosphate buffer was added in all well for all the samples. • d) Then the required test compositions were added in the well for the test. • e) The reaction volume for all the test samples was 300 μL. This reaction volume was adjusted by adding water. • f) The following samples were tested: • Example A: Only Culture • Example B: 1% niacinamide • Example C: 0.01% thymol • Example D: 0.01% terpineol • Example E: 0.01% thymol+0.01% terpineol • Example F: 0.01% Farnesol • Example G: 0.02% Farnesol • Example H: 1% niacinamide+0.01% Farnesol • Example I: 1% niacinamide+0.02% Farnesol • Example 1: 1% niacinamide+0.01% thymol+0.01% terpineol • Example 2: 1% niacinamide+1 μg/mL of LL-37+0.01% thymol+0.01% terpineol • For the above purpose, Thymol was procured from Nishant Aromas, India (Purity: 99%), Terpineol was also procured from Nishant Aromas, India (Purity: 99%), LL-37 (AMP) was procured from Sigma (Cat no: 94261),Niacinamide was procured from Veer Chemicals (Purity: 99%) and Farnesol was procured from Sigma-Aldrich (Cat. No: F203). • g) The contact time for the above test (for all the samples) was 4 hours and the temperature was maintained at about 37° C. • h) After the above contact time, the culture was serially diluted and plated on MacConkey Agar Medium (from Difco) and left it for 24 hours. After that, the residual colonies were counted to determine the bacterial kill/Residual Log.

Row | Molecule | Average Residual Log (CFU/mL) | antimicrobial action (in words)
1 | Cc1ccc(C(C)C)c(O)c1 [Example C, thymol] | 6.35 Log (CFU/mL) | not effective
2 | terpineol [Example D] | 6.45 Log (CFU/mL) | not effective
3 | CC(C)=CCCC(C)=CCCC(C)=CCO [Example G, Farnesol] | 6.35 Log (CFU/mL) | 
4 | CC(C)=CCCC(C)=CCCC(C)=CCO [Example F, Farnesol] | 6.40 Log (CFU/mL) | 
5 | NC(=O)c1cccnc1 [Example B, niacinamide] | 6.42 Log (CFU/mL) | 
